Assay results reported in US20030073132A1, “Method for the screening of alpha2delta-1 subunit binding ligands” (priority 1999, published 2003).
Values joined by “and” are separate entries in the source; they are usually repeats but may differ in a detail not shown here. Equal entries are not always repeated. Where two headings read alike, the source gives them in different places.

Columns and labels:
[1] = target: porcine α2δ-1b-6His (SEQ ID No 9) (Sus scrofa, UniProt A0A287BIN3); conditions: [3H]gabapentin 10-13 nM
Sequence of porcine α2δ-1b-6His (SEQ ID No 9) (A0A287BIN3 25-1109 limits assumed): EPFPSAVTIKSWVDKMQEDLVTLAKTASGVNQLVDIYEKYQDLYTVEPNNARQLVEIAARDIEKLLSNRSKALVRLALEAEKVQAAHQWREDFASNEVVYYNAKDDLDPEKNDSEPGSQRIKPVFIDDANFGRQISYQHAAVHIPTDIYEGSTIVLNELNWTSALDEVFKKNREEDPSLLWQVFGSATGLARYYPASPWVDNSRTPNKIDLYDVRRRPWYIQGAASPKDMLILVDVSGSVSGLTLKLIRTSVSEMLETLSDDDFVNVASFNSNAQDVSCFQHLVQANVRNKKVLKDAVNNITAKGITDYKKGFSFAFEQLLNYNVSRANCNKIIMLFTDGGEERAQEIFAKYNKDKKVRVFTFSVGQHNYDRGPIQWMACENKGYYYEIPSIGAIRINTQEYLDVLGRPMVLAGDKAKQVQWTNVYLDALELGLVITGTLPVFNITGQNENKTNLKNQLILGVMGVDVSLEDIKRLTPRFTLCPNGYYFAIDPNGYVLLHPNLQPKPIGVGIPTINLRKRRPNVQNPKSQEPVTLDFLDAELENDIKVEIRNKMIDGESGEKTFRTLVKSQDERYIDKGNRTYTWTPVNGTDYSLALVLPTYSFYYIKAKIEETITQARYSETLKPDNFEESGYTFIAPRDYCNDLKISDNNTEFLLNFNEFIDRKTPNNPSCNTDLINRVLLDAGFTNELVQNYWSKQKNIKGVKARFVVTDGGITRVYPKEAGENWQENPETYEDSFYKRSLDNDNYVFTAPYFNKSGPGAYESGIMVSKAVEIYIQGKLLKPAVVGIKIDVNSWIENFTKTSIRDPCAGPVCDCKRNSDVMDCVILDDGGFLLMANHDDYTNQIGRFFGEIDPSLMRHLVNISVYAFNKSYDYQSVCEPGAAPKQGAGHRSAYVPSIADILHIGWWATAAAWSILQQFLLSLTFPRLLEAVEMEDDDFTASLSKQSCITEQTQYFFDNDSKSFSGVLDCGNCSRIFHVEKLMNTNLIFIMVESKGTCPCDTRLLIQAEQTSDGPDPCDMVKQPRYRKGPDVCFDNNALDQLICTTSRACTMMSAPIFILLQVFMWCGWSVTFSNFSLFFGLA
Protocol: Assays were carried out at 21° C. in a final volume of 250 μl in 96-well NEN Ni chelate flash plates. Wells were set up for both ‘total’ and ‘non-specific’ binding. Specific binding was defined as that remaining after subtraction of the average of the ‘non-specific binding’ values from the average of the ‘total’ binding values. Assay components were added in the following order (all reagents were diluted in 10 mM HEPES (pH 7.4 at 21° C.)):
Immediately after adding radioligand, flash plates were loaded in the Packard Top Count scintillation counter to follow the binding time course. Incubation time before the assay was 3 hours. The ‘[^3H] flash plate’ programme (cpm) was used to monitor activity. Specific binding was ˜98% of the ‘total’ value. Imidazole was used in the assay to optimize the specific interaction of the protein's 6His tag with the Ni flashplate.
GraphPad Prism software was used to process competition curve data and determine IC50 and hill slope values. Twelve point competition curves with half log dilution steps of test compounds were used in the experiments.

[2] = target: [^3H]gabapentin site in porcine cortical membranes (Sus scrofa, UniProt O77773); conditions: saturation binding analyses on porcine synaptic plasma cerebral cortex membranes in the presence of L-leucine; cited from earlier work
Sequence of [^3H]gabapentin site in porcine cortical membranes (O77773 25-1091): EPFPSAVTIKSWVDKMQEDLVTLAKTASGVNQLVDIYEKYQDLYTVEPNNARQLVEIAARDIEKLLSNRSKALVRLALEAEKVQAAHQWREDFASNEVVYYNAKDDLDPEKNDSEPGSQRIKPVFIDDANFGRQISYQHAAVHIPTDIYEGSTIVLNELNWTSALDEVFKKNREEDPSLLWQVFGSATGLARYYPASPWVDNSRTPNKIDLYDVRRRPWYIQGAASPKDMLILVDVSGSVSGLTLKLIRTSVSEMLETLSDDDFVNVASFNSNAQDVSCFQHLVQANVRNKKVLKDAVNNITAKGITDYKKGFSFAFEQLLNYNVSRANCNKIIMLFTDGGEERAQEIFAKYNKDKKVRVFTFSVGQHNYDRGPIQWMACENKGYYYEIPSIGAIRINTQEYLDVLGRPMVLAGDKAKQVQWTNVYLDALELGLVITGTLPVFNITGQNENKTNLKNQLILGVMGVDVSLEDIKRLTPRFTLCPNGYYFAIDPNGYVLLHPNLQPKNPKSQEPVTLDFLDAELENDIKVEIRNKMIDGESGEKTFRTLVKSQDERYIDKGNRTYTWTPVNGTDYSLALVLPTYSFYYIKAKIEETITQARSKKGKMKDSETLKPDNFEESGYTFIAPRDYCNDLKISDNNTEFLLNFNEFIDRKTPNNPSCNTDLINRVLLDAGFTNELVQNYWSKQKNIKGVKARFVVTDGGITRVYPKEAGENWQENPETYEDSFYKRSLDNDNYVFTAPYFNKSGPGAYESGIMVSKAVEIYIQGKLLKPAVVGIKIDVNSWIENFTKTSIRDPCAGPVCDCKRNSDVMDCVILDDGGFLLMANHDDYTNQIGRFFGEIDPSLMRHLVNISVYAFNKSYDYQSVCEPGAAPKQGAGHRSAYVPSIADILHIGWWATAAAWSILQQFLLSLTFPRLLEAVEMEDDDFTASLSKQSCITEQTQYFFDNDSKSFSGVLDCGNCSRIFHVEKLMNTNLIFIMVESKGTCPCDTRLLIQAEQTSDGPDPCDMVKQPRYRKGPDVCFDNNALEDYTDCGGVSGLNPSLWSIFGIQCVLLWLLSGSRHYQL

[3] = read-out: Ki, Flash plate (3 μl protein used, n = 2), single experiments, Ki = IC50/(1 + [L]/KD), 3 h incubation
[4] = read-out: Ki, Flash plate, Mean (geometric), geometric mean of n = 2

| SMILES | Ki [1, 3] | Ki [1, 4] | interaction with the [3H]gabapentin binding site [2] |
| --- | --- | --- | --- |
| CC(C)C[C@@H](CN)CC(=O)O [(R-)-3-isobtyl GABA, (R−)-3-Isobutyl GABA] | 157 nM and 207 nM | 180 nM | – |
| CC(C)C[C@H](CN)CC(=O)O [(S+)-3-isobutyl GABA] | 10.9 nM and 7.58 nM | 9.09 nM | – |
| CC(C)C[C@H](N)C(=O)O [L-Leucine] | – | – | competitive interaction |
